One series concerns CREB. The series is described as follows: CRE dual luciferase reporter assay. Type of series: cell-based, human. Conditions: increasing doses (2, 5, and 10 µM). How it is done:
CRE luciferase assay was performed using a dual luciferase kit (Cat# 60611; BPS Bioscience). The CRE reporter is premixed with a constitutively expressing Renilla (sea pansy) luciferase vector that serves as an internal control for transfection efficiency. The reporter construct is transfected in SHSY5Y cells with Lipofectamine3000^TM transfection reagent mixed with serum-free Opti-MEM^TM Transfection media followed by supplementation with 20% FBS-containing media. After 24 h, cells were treated with JRM-28 for 5 h, and then dual luciferase activity was measured by cell lysis. The reaction was set in a 96-well plate, and the assay endpoint was recorded in a PerkinElmer Enspire multimodal plate reader.

The target of a further series is HDAC2 (Homo sapiens, UniProt Q92769). The series is described as follows: Endogenous HDAC2 activity assay (luminescence) in SHSY5Y cells. The series is classed as cell-based. Details: endogenous in cells; host or cells: SHSY5Y. Conditions: not reduced by DTT; 30 min of treatment. As to the method:
Next, JRM-28 in the presence of DTT was evaluated by cytotoxicity assays. A TUNEL assay was performed with SHSY5Y neuronal cells using increasing concentrations of JRM-28 in the presence of DTT. […] The results were further confirmed by quantitative analysis (Figure 4B). […] Next, we wanted to study the effect of lower concentrations of […] on the regulation of HDAC2 activity. […] To further confirm this finding, we performed a luminescence-based HDAC2 activity assay in SHSY5Y cells with increasing doses of JRM-28. JRM-28 was not reduced by DTT during the treatment, as the cellular reductase and oxidoreductase enzymes are expected to reduce JRM-28 in its “active 28a/b” components. […]
Figure 4 Exploring the cytotoxicity of JRM-28. SHSY5Y neurons were treated with different doses of JRM-28 for 24 h and then analyzed for different cytotoxicity assays. […] TUNEL^+ve cells were detected as condensed brown bodies, whereas nuclei were stained with hematoxylin (blue). (B) TUNEL bodies were counted per 10 randomly selected cells in 20 different images. Results were plotted as a dotted boxplot, and the significance of the mean was analyzed by one-way ANOVA (single effector = treatment). **** p < 0.00001 versus DMSO control. […] (E) The band density of individual HDAC2 bands was assessed in ImageJ software (version 1.45) followed by normalization with respective β-actin band density. […]

The next series relates to SHSY5Y cells. The series is described as follows: Lactate dehydrogenase (LDH) release cytotoxicity assay. Type of series: cell-based, human. Conditions: 24 h. How it is done:
Lactate dehydrogenase (LDH) cell cytotoxicity assay was performed per the manufacturer’s protocol. Briefly, SHSY5Y cells were grown in a 96-well plate with up to 70% confluency followed by treatment with increasing doses of JRM-28 under serum-free conditions. Serially diluted JRM-28 was used in a concentration range from 75 nM to 50 μM. As a control, serially diluted DMSO controls were added. After 24 h, supernatants were harvested by a multi-channel pipette and then assessed for LDH release with CyQUANT™ LDH Cytotoxicity Assay Kit. Briefly, 50 μL of supernatant was incubated with an equal volume of the working reaction mixture (generated after combining the 600 µL of assay buffer Stock Solution with the 11.4 mL of Substrate Stock substrate mix), incubated at room temperature for 30 min protected from light, terminated by 50 μL of stop solution, and then measured at 490 nm using a microplate absorbance spectrophotometer (Perkin Elmer Enspire 2300 Multilabel Multimode Microplate Reader). The percentage of cytotoxicity was determined following the formula provided with the LDH assay kit and then converted to relative cell cytotoxicity.

The target in a further series is T1, HDAC1 (Homo sapiens, UniProt Q13547).
T1 construct: purchased BPS Bioscience 50051
T1 sequence (Q13547 whole entry): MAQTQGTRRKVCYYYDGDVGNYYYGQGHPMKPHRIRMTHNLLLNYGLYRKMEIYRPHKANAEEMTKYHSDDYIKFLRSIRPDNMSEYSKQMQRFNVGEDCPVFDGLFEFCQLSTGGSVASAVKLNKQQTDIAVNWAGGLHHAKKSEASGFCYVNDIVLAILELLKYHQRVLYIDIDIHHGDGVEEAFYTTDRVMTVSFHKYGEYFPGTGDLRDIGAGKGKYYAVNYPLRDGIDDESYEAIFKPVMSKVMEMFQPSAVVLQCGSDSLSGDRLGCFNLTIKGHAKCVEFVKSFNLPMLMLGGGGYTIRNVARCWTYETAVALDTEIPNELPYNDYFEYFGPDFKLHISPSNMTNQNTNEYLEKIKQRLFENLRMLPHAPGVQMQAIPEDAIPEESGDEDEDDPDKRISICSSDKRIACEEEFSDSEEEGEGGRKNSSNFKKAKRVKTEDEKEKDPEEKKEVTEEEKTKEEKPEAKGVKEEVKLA
Kind of series: Fluorimetric HDAC inhibition assay, HDAC1. The series is classed as biochemical. Conditions: reduced with DTT. How it is done: The inhibition of HDAC1, 2, 3, and 6 by JRM-28 was fluorometrically measured using the HDAC Fluorogenic Assay Kit (Catalog# 50034) by BPS bioscience. Purified recombinant human HDAC1 (Cat# 50051), HDAC3 (Cat# 50003), and HDAC6 (Cat# 50056) were also obtained from BPS Bioscience. The enzyme inhibition assay was performed according to the manufacturer’s protocol. […] Purified recombinant HDAC2 (supplied with the fluorogenic kit) was diluted to 6 ng/µL (5 µL/well with the supplied HDAC assay buffer). HDAC 1, 3, and 6 were also diluted to the optimized concentration (5 µL/well) with the HDAC assay buffer. The activity of JRM-28 was measured along with DTT control and DMSO as blank. After adding 5 µL of the diluted HDAC enzymes in designated wells, the 96-well plate (supplied with the kit) was incubated at 37 °C. Then, the reaction was initiated by adding 5 µL of diluted HDAC substrate to each well, followed by another incubation at 37 °C for 30 min. Next, 50 µL of the developer reagent was added to each well and incubated at room temperature for another 15 min. Finally, fluorescence was measured by a microplate absorbance spectrophotometer (PerkinElmer Enspire 2300 Multilabel Multimode Microplate Reader) with an excitation at λ = 485 nm and detection at λ = 528 nm.

HDAC2, sequence (Q92769 whole entry): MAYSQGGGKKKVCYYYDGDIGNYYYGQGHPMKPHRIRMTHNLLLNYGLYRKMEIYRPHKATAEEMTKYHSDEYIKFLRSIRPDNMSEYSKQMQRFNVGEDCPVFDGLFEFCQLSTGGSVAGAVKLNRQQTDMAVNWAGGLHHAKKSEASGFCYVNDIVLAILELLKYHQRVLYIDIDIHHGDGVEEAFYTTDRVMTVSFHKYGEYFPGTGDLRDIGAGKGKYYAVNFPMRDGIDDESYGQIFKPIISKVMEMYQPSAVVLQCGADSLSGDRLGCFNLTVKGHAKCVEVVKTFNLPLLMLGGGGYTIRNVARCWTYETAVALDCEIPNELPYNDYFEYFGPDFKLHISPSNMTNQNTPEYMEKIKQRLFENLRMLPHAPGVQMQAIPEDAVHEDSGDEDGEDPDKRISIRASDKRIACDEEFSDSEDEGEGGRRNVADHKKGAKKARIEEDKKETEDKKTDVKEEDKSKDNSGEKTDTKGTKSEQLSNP

`CN(C(=O)CC(O)/C=C/CCSS(=O)(=O)CC/C=C/C(O)CC(=O)N(C)c1ccccc1)c1ccccc1` (stereo not drawn) [JRM-28, S-((E)-5-hydroxy-7-(methyl(phenyl)amino)-7-oxohept-3-en-1-yl) (E)-5-hydroxy-7-(methyl(phenyl)amino)-7-oxohept-3-ene-1-sulfonothioate]: the CREB-driven reporter activity entry in the series with CREB is reported as “upregulated the CREB-driven reporter activity”. The figures for the IC50 on HDAC2 and on HDAC1 were 5440 nM and 351 nM, respectively. The LDH release result is “significantly induced LDH release” in the series on SHSY5Y cells (30 µM and 50 µM); “but not lower concentrations of JRM-28, significantly induced LDH release” in the series on SHSY5Y cells (concentrations lower than 30 µM). Further, the “Hill coefficient HDAC1 (fluorimetric)” value on HDAC1 (listed as JRM-28 (JRM-28a+28b)) is listed as −4.582.

Source of the values: paper PMC11640089, “JRM-28, a Novel HDAC2 Inhibitor, Upregulates Plasticity-Associated Proteins in Hippocampal Neurons and Enhances Morphological Plasticity via Activation of CREB: Implications for Alzheimer’s Disease” (Cells, 2024).
